From the kinase profiling compilation of Christmann-Franck et al. (2016)
Values belong to the compound of their own block, whether it stands above or below them.

Assays:
Test in all cases: radiometric filter-binding kinase assay
[1] = system: AKT2 (human), P31751 [S474D]
[2] = biological target: AURKA (human) (UniProt O14965)
[3] = biological target: BTK (human) (UniProt Q06187)
[4] = biological target: CLK2 (human) (UniProt P49760)
[5] = biological target: CSNK1D (human) (UniProt P48730)
[6] = biological target: CSNK2A1 (human) (UniProt P68400)
[7] = biological target: DYRK2 (human) (UniProt Q92630)
[8] = biological target: FLT1 (human) (UniProt P17948)
[9] = biological target: HIPK1 (human) (UniProt Q86Z02)
[10] = biological target: HIPK2 (human) (UniProt Q9H2X6)
[11] = biological target: INSRR (human) (UniProt P14616)
[12] = biological target: IRAK4 (human) (UniProt Q9NWZ3)
[13] = biological target: JAK2 JH1 JH2 (human) (UniProt O60674)
[14] = biological target: MAP3K9 (human) (UniProt P80192)
[15] = biological target: MAPK1 (human) (UniProt P28482)
[16] = biological target: MAPK14 (human) (UniProt Q16539)
[17] = biological target: MAPK15 (human) (UniProt Q8TD08)
[18] = biological target: MAPKAPK3 (human) (UniProt Q16644)
[19] = biological target: MARK3 (human) (UniProt P27448)
[20] = biological target: MARK4 (human) (UniProt Q96L34)
[21] = biological target: MKNK2 (human) (UniProt Q9HBH9)
[22] = biological target: NEK2 (human) (UniProt P51955)
[23] = biological target: NEK6 (human) (UniProt Q9HC98)
[24] = biological target: NTRK1 (human) (UniProt P04629)
[25] = biological target: PRKCA (human) (UniProt P17252)
[26] = biological target: RIPK2 (human) (UniProt O43353)
[27] = biological target: RPS6KA1 KD1 KD2 (human) (UniProt Q15418)
[28] = biological target: RPS6KA5 KD1 KD2 (human) (UniProt O75582)
[29] = system: RPS6KB1 (human), P23443 [T412E]
[30] = biological target: SRPK1 (human) (UniProt Q96SB4)
[31] = biological target: STK11 CAB39 STRADA (human) (UniProt Q9Y376+Q7RTN6+Q15831)
[32] = biological target: YES1 (human) (UniProt P07947)
[33] = biological target: INSR (human) (UniProt P06213)
[34] = biological target: MAPK11 (human) (UniProt Q15759)

NEK6 (human), sequence (Q9HC98 whole entry, looked up): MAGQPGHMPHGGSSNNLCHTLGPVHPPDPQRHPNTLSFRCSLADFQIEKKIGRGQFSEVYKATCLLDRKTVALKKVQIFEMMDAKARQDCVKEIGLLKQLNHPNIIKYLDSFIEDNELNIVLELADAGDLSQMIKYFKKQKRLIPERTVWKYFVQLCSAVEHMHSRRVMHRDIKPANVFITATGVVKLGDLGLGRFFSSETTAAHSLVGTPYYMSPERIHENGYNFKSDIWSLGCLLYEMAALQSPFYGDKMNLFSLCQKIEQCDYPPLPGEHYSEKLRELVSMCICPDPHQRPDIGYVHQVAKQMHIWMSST
CSNK2A1 (human), sequence (P68400 whole entry, looked up): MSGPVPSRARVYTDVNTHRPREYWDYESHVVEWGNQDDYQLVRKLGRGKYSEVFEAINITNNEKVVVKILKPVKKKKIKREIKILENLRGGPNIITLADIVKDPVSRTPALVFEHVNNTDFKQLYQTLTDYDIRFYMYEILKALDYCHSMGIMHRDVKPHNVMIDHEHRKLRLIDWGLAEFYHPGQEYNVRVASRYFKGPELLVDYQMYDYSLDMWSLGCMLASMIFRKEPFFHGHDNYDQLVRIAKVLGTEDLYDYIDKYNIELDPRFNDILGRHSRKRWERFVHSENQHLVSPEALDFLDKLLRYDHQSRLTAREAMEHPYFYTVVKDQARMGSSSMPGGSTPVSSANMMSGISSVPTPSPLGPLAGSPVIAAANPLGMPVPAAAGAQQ
BTK (human), sequence (Q06187 whole entry, looked up): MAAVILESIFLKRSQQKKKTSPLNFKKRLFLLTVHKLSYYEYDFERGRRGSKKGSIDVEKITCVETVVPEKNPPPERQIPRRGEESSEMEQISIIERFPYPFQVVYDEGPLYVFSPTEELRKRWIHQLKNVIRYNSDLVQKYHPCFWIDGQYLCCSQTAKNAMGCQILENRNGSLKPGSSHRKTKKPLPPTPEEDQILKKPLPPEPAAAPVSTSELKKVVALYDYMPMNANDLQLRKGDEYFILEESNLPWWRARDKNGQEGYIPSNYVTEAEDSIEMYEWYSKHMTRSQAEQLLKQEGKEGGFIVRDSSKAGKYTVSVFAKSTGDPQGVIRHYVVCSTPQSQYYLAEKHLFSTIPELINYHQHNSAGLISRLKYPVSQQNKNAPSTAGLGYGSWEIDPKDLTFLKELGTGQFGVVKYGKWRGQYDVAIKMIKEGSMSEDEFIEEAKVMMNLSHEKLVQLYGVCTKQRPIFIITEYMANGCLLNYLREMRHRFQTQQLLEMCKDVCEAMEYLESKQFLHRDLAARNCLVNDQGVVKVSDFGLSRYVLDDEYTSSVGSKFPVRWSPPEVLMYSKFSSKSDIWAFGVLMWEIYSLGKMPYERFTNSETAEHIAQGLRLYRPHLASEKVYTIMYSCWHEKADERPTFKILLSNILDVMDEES
RPS6KA1 KD1 KD2 (human), sequence (Q15418 whole entry, looked up): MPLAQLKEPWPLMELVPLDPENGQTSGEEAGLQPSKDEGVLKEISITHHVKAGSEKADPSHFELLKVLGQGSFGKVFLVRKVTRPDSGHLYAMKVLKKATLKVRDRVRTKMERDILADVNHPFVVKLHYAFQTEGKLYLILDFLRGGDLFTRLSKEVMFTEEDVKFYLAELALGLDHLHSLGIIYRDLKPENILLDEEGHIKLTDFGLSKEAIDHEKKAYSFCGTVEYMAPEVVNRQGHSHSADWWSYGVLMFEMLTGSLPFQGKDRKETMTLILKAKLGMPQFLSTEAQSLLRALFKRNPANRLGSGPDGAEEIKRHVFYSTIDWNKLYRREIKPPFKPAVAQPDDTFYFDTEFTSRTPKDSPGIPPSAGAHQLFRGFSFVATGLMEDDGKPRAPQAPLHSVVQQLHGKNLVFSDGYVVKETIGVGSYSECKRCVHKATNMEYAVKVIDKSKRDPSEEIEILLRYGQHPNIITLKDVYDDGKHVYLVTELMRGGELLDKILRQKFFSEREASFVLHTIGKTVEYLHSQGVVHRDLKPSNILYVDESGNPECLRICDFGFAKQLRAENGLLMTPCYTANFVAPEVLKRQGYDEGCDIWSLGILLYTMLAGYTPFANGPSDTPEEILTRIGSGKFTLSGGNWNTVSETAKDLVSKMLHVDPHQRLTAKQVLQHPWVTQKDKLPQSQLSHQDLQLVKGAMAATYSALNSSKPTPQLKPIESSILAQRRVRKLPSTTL
HIPK2 (human), sequence (Q9H2X6 whole entry, looked up): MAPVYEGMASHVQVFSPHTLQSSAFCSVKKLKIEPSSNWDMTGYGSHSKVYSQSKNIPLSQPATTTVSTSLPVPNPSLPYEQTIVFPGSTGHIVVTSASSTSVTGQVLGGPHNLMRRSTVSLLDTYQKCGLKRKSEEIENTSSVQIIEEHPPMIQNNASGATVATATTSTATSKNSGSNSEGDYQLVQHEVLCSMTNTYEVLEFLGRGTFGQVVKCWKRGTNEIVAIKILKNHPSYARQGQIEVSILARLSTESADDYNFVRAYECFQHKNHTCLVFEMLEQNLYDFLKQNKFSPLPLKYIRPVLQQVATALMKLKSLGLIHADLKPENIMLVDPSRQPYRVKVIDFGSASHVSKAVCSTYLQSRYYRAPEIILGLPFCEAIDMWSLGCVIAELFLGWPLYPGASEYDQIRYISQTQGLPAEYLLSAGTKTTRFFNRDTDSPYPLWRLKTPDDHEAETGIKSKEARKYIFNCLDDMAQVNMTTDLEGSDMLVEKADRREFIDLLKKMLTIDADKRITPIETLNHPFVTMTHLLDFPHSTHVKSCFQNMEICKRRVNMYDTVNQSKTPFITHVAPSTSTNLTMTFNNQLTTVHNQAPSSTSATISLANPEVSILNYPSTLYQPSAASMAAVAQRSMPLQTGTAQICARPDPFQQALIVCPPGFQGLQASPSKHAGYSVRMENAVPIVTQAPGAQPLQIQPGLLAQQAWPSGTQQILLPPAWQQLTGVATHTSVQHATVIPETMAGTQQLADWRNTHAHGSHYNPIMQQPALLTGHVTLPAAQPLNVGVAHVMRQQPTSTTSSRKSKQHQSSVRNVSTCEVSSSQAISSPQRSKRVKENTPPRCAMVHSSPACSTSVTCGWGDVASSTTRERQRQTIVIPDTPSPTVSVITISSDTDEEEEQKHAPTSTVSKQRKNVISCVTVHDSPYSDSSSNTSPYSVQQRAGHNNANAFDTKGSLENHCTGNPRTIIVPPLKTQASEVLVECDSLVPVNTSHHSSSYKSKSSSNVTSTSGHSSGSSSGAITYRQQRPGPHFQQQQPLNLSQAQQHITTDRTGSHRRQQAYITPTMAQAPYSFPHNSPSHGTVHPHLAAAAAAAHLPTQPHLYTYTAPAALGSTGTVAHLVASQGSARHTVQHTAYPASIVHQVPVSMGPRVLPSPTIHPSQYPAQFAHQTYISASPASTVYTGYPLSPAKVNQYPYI
INSRR (human), sequence (P14616 whole entry, looked up): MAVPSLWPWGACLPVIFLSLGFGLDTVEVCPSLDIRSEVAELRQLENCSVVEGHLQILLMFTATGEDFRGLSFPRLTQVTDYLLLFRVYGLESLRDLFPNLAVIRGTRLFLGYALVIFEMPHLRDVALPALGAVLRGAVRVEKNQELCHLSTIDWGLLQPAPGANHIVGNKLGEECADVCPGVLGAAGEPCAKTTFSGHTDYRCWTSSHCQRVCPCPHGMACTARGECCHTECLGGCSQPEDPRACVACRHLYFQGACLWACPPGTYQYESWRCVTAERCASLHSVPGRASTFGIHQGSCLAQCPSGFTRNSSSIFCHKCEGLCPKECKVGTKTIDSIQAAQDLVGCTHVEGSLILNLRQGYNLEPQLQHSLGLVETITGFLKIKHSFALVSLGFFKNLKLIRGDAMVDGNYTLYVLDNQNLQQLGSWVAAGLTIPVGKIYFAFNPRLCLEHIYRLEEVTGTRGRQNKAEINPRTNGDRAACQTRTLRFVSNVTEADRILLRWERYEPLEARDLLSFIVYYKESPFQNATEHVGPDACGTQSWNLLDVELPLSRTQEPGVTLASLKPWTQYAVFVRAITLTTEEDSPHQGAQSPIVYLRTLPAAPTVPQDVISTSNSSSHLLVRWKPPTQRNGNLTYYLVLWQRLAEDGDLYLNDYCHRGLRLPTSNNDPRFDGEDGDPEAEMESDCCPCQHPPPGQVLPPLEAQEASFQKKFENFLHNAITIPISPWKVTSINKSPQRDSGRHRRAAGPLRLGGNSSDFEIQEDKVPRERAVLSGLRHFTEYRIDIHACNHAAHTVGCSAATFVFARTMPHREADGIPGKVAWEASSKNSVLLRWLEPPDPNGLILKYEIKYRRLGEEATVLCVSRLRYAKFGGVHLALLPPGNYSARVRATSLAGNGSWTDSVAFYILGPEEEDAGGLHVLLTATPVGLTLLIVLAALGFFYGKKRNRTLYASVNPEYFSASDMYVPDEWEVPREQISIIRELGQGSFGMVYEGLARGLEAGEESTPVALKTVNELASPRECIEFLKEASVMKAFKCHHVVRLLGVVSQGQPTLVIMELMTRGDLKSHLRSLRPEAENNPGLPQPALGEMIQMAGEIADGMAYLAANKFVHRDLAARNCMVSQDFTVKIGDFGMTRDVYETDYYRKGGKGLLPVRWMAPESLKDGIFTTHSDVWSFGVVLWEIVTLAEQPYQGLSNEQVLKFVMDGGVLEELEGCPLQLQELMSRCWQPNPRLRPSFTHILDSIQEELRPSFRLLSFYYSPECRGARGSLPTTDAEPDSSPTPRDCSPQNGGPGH
IRAK4 (human), sequence (Q9NWZ3 whole entry, looked up): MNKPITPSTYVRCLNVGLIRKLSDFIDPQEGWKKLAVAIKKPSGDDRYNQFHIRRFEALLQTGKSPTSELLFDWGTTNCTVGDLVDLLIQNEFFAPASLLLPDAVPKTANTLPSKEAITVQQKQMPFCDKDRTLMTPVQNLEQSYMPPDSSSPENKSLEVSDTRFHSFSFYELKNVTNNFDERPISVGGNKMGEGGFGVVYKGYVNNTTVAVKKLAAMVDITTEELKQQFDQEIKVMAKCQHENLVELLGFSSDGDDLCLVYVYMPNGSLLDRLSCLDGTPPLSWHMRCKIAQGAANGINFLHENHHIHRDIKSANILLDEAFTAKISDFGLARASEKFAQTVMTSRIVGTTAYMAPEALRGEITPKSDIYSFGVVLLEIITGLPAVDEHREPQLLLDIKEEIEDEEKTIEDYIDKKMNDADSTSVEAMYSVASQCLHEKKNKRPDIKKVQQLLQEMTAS

residual activity ([1]; compound 1.0 µM): 95%
residual activity ([1]; compound 10.0 µM): 82%
residual activity ([2]; compound 1.0 µM): 112%
residual activity ([2]; compound 10.0 µM): 108%
residual activity ([3]; compound 1.0 µM): 110%
residual activity ([3]; compound 10.0 µM): 100%
residual activity ([4]; compound 1.0 µM): 103%
residual activity ([4]; compound 10.0 µM): 85%
residual activity ([5]; compound 1.0 µM): 89%
residual activity ([5]; compound 10.0 µM): 101%
residual activity ([6]; compound 1.0 µM): 107%
residual activity ([6]; compound 10.0 µM): 118%
residual activity ([7]; compound 1.0 µM): 99%
residual activity ([7]; compound 10.0 µM): 107%
residual activity ([8]; compound 10.0 µM): 39%
residual activity ([9]; compound 1.0 µM): 84%
residual activity ([9]; compound 10.0 µM): 92%
residual activity ([10]; compound 1.0 µM): 93%
residual activity ([10]; compound 10.0 µM): 104%
residual activity ([11]; compound 1.0 µM): 106%
residual activity ([12]; compound 1.0 µM): 81%
residual activity ([12]; compound 10.0 µM): 100%
residual activity ([13]; compound 1.0 µM): 8%
residual activity ([13]; compound 10.0 µM): 9%
residual activity ([14]; compound 1.0 µM): 95%
residual activity ([14]; compound 10.0 µM): 108%
residual activity ([15]; compound 1.0 µM): 90%
residual activity ([15]; compound 10.0 µM): 100%
residual activity ([16]; compound 1.0 µM): 96%
residual activity ([16]; compound 10.0 µM): 97%
residual activity ([18]; compound 1.0 µM): 90%
residual activity ([18]; compound 10.0 µM): 89%
residual activity ([19]; compound 1.0 µM): 91%
residual activity ([19]; compound 10.0 µM): 74%
residual activity ([20]; compound 1.0 µM): 112%
residual activity ([20]; compound 10.0 µM): 127%
residual activity ([21]; compound 1.0 µM): 93%
residual activity ([21]; compound 10.0 µM): 110%
residual activity ([22]; compound 1.0 µM): 97%
residual activity ([22]; compound 10.0 µM): 102%
residual activity ([23]; compound 1.0 µM): 95%
residual activity ([23]; compound 10.0 µM): 110%
residual activity ([24]; compound 1.0 µM): 72%
residual activity ([24]; compound 10.0 µM): 75%
residual activity ([25]; compound 1.0 µM): 100%
residual activity ([25]; compound 10.0 µM): 108%
residual activity ([26]; compound 1.0 µM): 99%
residual activity ([26]; compound 10.0 µM): 100%
residual activity ([27]; compound 1.0 µM): 102%
residual activity ([27]; compound 10.0 µM): 102%
residual activity ([28]; compound 1.0 µM): 97%
residual activity ([28]; compound 10.0 µM): 96%
residual activity ([29]; compound 1.0 µM): 97%
residual activity ([29]; compound 10.0 µM): 81%
residual activity ([30]; compound 1.0 µM): 80%
residual activity ([30]; compound 10.0 µM): 95%
residual activity ([31]; compound 1.0 µM): 113%
residual activity ([32]; compound 1.0 µM): 82%
residual activity ([32]; compound 10.0 µM): 86%
Compound: O=C(NOC[C@H](O)CO)c1ccc(F)c(F)c1Nc1ccc(I)cc1Cl
residual activity ([17]; compound 1.0 µM): 104%
residual activity ([17]; compound 10.0 µM): 96%

residual activity ([1]; compound 1.0 µM): 100%
residual activity ([1]; compound 10.0 µM): 96%
residual activity ([2]; compound 1.0 µM): 87%
residual activity ([2]; compound 10.0 µM): 22%
residual activity ([3]; compound 1.0 µM): 90%
residual activity ([3]; compound 10.0 µM): 68%
residual activity ([4]; compound 1.0 µM): 89%
residual activity ([4]; compound 10.0 µM): 49%
residual activity ([5]; compound 1.0 µM): 96%
residual activity ([5]; compound 10.0 µM): 81%
residual activity ([6]; compound 10.0 µM): 106%
residual activity ([7]; compound 1.0 µM): 109%
residual activity ([7]; compound 10.0 µM): 86%
residual activity ([8]; compound 1.0 µM): 45%
residual activity ([8]; compound 10.0 µM): 9%
residual activity ([9]; compound 1.0 µM): 100%
residual activity ([9]; compound 10.0 µM): 87%
residual activity ([10]; compound 1.0 µM): 94%
residual activity ([10]; compound 10.0 µM): 52%
residual activity ([33]; compound 1.0 µM): 101%
residual activity ([33]; compound 10.0 µM): 97%
residual activity ([11]; compound 1.0 µM): 97%
residual activity ([11]; compound 10.0 µM): 52%
residual activity ([12]; compound 1.0 µM): 68%
residual activity ([12]; compound 10.0 µM): 28%
residual activity ([13]; compound 1.0 µM): 104%
residual activity ([13]; compound 10.0 µM): 60%
residual activity ([14]; compound 1.0 µM): 72%
residual activity ([14]; compound 10.0 µM): 32%
residual activity ([15]; compound 1.0 µM): 99%
residual activity ([15]; compound 10.0 µM): 89%
residual activity ([34]; compound 1.0 µM): 99%
residual activity ([34]; compound 10.0 µM): 98%
residual activity ([16]; compound 1.0 µM): 100%
residual activity ([16]; compound 10.0 µM): 101%
residual activity ([18]; compound 1.0 µM): 100%
residual activity ([18]; compound 10.0 µM): 93%
residual activity ([19]; compound 1.0 µM): 90%
residual activity ([19]; compound 10.0 µM): 69%
residual activity ([20]; compound 1.0 µM): 105%
residual activity ([20]; compound 10.0 µM): 69%
residual activity ([21]; compound 1.0 µM): 106%
residual activity ([21]; compound 10.0 µM): 115%
residual activity ([22]; compound 1.0 µM): 99%
residual activity ([22]; compound 10.0 µM): 92%
residual activity ([23]; compound 1.0 µM): 107%
residual activity ([23]; compound 10.0 µM): 93%
residual activity ([24]; compound 1.0 µM): 90%
residual activity ([24]; compound 10.0 µM): 30%
residual activity ([25]; compound 1.0 µM): 93%
residual activity ([25]; compound 10.0 µM): 86%
residual activity ([26]; compound 1.0 µM): 86%
residual activity ([26]; compound 10.0 µM): 36%
residual activity ([27]; compound 1.0 µM): 101%
residual activity ([27]; compound 10.0 µM): 95%
residual activity ([28]; compound 1.0 µM): 108%
residual activity ([28]; compound 10.0 µM): 108%
residual activity ([29]; compound 1.0 µM): 100%
residual activity ([29]; compound 10.0 µM): 98%
residual activity ([30]; compound 1.0 µM): 97%
residual activity ([30]; compound 10.0 µM): 93%
residual activity ([31]; compound 1.0 µM): 91%
residual activity ([31]; compound 10.0 µM): 81%
residual activity ([32]; compound 1.0 µM): 92%
residual activity ([32]; compound 10.0 µM): 79%
Compound: NC(=O)c1c(NC(=O)C2CC2)sc2c1CCCC2
residual activity ([17]; compound 1.0 µM): 106%
residual activity ([17]; compound 10.0 µM): 67%
